Data as given in ChEMBL document CHEMBL3108684, “Discovery and development of potent and selective inhibitors of histone methyltransferase g9a” (ACS Med Chem Lett, 2014).
Blank lines part the entries; values can stand above or below the compound they belong to. Calls of active or inactive are those of the source. No cut-off for these calls is given here.

What was measured:
[1] = target: T1, Histone-lysine N-methyltransferase EHMT2 (Homo sapiens, UniProt Q96KQ7); assay: Inhibition of G9a (unknown origin) using biotinylated-histone H3(1-21) peptide as substrate after 3 hrs by AlphaLISA assay
T1 sequence (Q96KQ7 whole entry): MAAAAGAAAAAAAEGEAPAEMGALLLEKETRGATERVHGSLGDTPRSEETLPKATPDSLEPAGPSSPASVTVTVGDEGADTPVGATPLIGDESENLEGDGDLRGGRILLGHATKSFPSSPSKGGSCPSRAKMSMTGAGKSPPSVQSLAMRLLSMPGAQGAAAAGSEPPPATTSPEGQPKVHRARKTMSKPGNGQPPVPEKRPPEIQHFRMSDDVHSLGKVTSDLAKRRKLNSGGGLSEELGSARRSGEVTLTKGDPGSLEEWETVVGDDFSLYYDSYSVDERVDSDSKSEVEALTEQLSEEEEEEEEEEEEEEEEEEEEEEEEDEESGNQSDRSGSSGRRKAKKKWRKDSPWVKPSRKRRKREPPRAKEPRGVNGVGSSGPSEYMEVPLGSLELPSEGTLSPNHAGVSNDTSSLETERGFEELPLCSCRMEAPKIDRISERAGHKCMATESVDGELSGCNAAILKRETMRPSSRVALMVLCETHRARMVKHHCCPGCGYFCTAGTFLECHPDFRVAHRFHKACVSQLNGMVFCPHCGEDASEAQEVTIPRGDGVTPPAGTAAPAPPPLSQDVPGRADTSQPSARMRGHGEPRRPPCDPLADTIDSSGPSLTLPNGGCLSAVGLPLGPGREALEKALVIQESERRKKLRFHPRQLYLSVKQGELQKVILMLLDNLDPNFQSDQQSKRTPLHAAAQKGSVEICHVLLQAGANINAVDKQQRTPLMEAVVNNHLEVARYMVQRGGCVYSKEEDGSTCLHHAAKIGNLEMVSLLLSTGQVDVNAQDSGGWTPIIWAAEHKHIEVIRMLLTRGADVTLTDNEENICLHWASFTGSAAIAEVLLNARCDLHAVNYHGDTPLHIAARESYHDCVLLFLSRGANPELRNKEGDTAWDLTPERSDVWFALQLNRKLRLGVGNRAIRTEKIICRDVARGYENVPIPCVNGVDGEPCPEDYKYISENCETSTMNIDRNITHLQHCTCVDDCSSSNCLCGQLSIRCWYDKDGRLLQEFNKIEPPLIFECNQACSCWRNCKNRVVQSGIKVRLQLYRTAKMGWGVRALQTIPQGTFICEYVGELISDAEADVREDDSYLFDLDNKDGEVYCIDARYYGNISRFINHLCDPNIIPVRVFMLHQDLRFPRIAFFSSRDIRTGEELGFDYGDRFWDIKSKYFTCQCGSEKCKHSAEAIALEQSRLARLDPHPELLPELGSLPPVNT

[2] = target: Histone-lysine N-methyltransferase KMT5C (Homo sapiens) (UniProt Q86Y97); assay: Inhibition of SUV420H2 (unknown origin)-mediated incorporation of methyl group from [3H]-SAM into peptide substrate up to 50 uM by scintillation proximity assay
[3] = target: Histone-lysine N-methyltransferase NSD3 (Homo sapiens) (UniProt Q9BZ95); assay: Inhibition of WHSC1L (unknown origin)-mediated incorporation of methyl group from [3H]-SAM into peptide substrate up to 50 uM after 1 hr by scintillation proximity assay
[4] = target: Histone-lysine N-methyltransferase SETDB1 (Homo sapiens) (UniProt Q15047); assay: Inhibition of SETDB1 (unknown origin)-mediated incorporation of methyl group from [3H]-SAM into peptide substrate up to 50 uM by scintillation proximity assay
PC-3 [5] = assay: Effect on total H3K36Me2 protein level in human PC3 cells at 0.01 to 10 uM after 72 hrs by Western blotting analysis; type: functional, cell-based
[6] = target: PRMT5/MEP50 complex (Homo sapiens) (UniProt O14744+Q9BQA1); assay: Inhibition of PRMT5/MEP50 complex (unknown origin)-mediated incorporation of methyl group from [3H]-SAM into peptide substrate up to 50 uM by scintillation proximity assay; type: protein-complex assay
[7] = target: Protein arginine N-methyltransferase 3 (Homo sapiens) (UniProt O60678); assay: Inhibition of PRMT3 (unknown origin)-mediated incorporation of methyl group from [3H]-SAM into peptide substrate up to 50 uM by scintillation proximity assay
[8] = target: MLL1/ASH2L/RBBP5/WDR5 complex (Homo sapiens) (UniProt P61964+Q03164+Q9UBL3+Q15291); assay: Inhibition of MLL1/ASH2L/RBBP5/WDR5 complex (unknown origin)-mediated incorporation of methyl group from [3H]-SAM into peptide substrate up to 50 uM by scintillation proximity assay; type: protein-complex assay
[9] = target: DNA (cytosine-5)-methyltransferase 1 (Homo sapiens) (UniProt P26358); assay: Inhibition of DNMT1 (unknown origin)-mediated incorporation of methyl group from [3H]-SAM into dsDNA substrate up to 50 uM by scintillation proximity assay
[10] = target: Histone-lysine N-methyltransferase, H3 lysine-79 specific (Homo sapiens) (UniProt Q8TEK3); assay: Inhibition of DOT1L (unknown origin)-mediated incorporation of methyl group from [3H]-SAM into peptide substrate up to 50 uM after 1 hr by scintillation proximity assay
[11] = target: Histone-lysine N-methyltransferase SETD2 (Homo sapiens) (UniProt Q9BYW2); assay: Inhibition of SETD2 (unknown origin)-mediated incorporation of methyl group from [3H]-SAM into peptide substrate up to 50 uM by scintillation proximity assay
[12] = target: Protein arginine N-methyltransferase 8 (Homo sapiens) (UniProt Q9NR22); assay: Inhibition of PRMT8 (unknown origin)-mediated incorporation of methyl group from [3H]-SAM into peptide substrate up to 50 uM by scintillation proximity assay
PC-3 [13] = assay: Effect on total histone 3 protein level in human PC3 cells at 0.01 to 10 uM after 72 hrs by Western blotting analysis; type: functional, cell-based
[14] = target: Histone-lysine N-methyltransferase SMYD3 (Homo sapiens) (UniProt Q9H7B4); assay: Inhibition of SMYD3 (unknown origin)-mediated incorporation of methyl group from [3H]-SAM into peptide substrate up to 50 uM by scintillation proximity assay
[15] = target: Histone-lysine N-methyltransferase SUV39H2 (Homo sapiens) (UniProt Q9H5I1); assay: Inhibition of SUV39H2 (unknown origin)-mediated incorporation of methyl group from [3H]-SAM into peptide substrate up to 50 uM by scintillation proximity assay
[16] = target: Protein arginine N-methyltransferase 1 (Homo sapiens) (UniProt Q99873); assay: Inhibition of PRMT1 (unknown origin)-mediated incorporation of methyl group from [3H]-SAM into peptide substrate up to 50 uM by scintillation proximity assay
[17] = target: Histone-lysine N-methyltransferase KMT5B (Homo sapiens) (UniProt Q4FZB7); assay: Inhibition of SUV420H1 (unknown origin)-mediated incorporation of methyl group from [3H]-SAM into peptide substrate up to 50 uM by scintillation proximity assay
PC-3 [18] = assay: Effect on total H3K27Me3 protein level in human PC3 cells at 0.01 to 10 uM after 72 hrs by Western blotting analysis; type: functional, cell-based
[19] = target: EZH1/SUZ12/EED/AEBP2/RBBP4 complex (Homo sapiens) (UniProt Q92800+O75530+Q15022+Q6ZN18+Q09028); assay: Inhibition of EZH1/EED/SUZ12/AEBP2/RBBP4 complex (unknown origin)-mediated incorporation of methyl group from [3H]-SAM into peptide substrate up to 50 uM by scintillation proximity assay; type: protein-complex assay
[20] = target: N-lysine methyltransferase SMYD2 (Homo sapiens) (UniProt Q9NRG4); assay: Inhibition of SMYD2 (unknown origin)-mediated incorporation of methyl group from [3H]-SAM into peptide substrate up to 50 uM by scintillation proximity assay
[21] = target: Histone-lysine N-methyltransferase NSD2 (Homo sapiens) (UniProt O96028); assay: Inhibition of WHSC1 (unknown origin)-mediated incorporation of methyl group from [3H]-SAM into peptide substrate up to 50 uM after 1 hr by scintillation proximity assay
[22] = target: Histone-lysine N-methyltransferase EHMT2 (Homo sapiens) (UniProt Q96KQ7); details: PC-3, 3 uM
Description: Inhibition of G9a in human PC3 cells assessed as reduction in H3K9Me2 level at 3 uM after 72 hrs by Western blotting analysis relative to control

[23] = target: EZH2/SUZ12/EED complex (Homo sapiens) (UniProt Q15910+O75530+Q15022); assay: Inhibition of EZH2/SUZ12/EED complex (unknown origin)-mediated incorporation of methyl group from [3H]-SAM into peptide substrate up to 50 uM by scintillation proximity assay; type: protein-complex assay
[24] = target: Protein arginine N-methyltransferase 6 (Homo sapiens) (UniProt Q96LA8); assay: Inhibition of PRMT6 (unknown origin)-mediated incorporation of methyl group from [3H]-SAM into peptide substrate up to 50 uM by scintillation proximity assay
[25] = target: N-lysine methyltransferase KMT5A (Homo sapiens) (UniProt Q9NQR1); assay: Inhibition of SETD8 (unknown origin)-mediated incorporation of methyl group from [3H]-SAM into peptide substrate up to 50 uM by scintillation proximity assay
[26] = target: Histone-lysine N-methyltransferase EHMT1 (Homo sapiens, UniProt Q9H9B1); assay: Inhibition of GLP (unknown origin)-mediated incorporation of methyl group from [3H]-SAM into peptide substrate by scintillation proximity assay
[27] = target: Histone-lysine N-methyltransferase SETD7 (Homo sapiens) (UniProt Q8WTS6); assay: Inhibition of SETD7 (unknown origin)-mediated incorporation of methyl group from [3H]-SAM into peptide substrate up to 50 uM by scintillation proximity assay
Sequence of Histone-lysine N-methyltransferase SETD7 (Homo sapiens) (Q8WTS6 whole entry): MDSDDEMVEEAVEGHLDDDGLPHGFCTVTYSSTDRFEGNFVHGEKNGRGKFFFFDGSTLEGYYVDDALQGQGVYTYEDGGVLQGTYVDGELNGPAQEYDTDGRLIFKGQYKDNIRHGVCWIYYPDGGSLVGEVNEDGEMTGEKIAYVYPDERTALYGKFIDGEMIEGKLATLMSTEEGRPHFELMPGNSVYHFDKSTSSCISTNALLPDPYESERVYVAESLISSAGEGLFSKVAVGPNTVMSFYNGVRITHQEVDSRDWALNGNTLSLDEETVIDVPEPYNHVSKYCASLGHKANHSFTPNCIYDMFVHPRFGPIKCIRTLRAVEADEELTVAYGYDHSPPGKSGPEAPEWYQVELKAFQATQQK

Sequence of N-lysine methyltransferase KMT5A (Homo sapiens) (Q9NQR1 whole entry): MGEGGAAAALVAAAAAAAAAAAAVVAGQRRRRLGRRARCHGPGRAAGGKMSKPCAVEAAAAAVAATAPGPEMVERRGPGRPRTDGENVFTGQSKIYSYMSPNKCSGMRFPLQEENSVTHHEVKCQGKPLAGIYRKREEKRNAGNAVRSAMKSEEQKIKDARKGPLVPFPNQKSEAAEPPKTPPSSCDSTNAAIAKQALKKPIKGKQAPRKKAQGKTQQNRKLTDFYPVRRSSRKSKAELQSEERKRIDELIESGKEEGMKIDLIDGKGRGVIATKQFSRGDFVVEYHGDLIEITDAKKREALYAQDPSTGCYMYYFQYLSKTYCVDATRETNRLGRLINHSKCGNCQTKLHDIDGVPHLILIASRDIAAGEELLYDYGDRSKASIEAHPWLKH
Sequence of Histone-lysine N-methyltransferase KMT5B (Homo sapiens) (Q4FZB7 whole entry, looked up): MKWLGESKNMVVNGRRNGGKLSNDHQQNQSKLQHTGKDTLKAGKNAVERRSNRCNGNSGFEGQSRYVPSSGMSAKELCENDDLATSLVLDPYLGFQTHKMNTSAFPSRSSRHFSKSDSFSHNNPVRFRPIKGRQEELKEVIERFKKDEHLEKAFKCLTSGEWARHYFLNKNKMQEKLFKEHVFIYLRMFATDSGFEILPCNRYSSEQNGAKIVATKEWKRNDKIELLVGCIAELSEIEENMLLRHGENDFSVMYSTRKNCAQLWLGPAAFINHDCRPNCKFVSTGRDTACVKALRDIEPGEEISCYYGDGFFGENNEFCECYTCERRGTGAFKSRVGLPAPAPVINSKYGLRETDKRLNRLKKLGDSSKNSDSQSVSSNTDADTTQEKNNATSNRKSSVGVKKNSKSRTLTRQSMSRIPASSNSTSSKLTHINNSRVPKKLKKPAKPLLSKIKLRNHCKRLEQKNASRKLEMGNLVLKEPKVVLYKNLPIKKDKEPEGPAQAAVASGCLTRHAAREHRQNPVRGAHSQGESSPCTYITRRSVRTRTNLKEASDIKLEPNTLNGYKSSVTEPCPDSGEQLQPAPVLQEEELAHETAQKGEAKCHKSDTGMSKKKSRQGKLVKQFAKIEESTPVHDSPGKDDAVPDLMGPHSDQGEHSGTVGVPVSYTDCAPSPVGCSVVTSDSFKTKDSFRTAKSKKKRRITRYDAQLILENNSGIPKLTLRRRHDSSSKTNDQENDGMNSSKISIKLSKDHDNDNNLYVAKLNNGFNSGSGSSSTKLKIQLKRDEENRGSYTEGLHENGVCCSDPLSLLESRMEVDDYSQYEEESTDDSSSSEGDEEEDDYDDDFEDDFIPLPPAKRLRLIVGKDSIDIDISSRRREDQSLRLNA
Sequence of Protein arginine N-methyltransferase 3 (Homo sapiens) (O60678 2-531 limits assumed): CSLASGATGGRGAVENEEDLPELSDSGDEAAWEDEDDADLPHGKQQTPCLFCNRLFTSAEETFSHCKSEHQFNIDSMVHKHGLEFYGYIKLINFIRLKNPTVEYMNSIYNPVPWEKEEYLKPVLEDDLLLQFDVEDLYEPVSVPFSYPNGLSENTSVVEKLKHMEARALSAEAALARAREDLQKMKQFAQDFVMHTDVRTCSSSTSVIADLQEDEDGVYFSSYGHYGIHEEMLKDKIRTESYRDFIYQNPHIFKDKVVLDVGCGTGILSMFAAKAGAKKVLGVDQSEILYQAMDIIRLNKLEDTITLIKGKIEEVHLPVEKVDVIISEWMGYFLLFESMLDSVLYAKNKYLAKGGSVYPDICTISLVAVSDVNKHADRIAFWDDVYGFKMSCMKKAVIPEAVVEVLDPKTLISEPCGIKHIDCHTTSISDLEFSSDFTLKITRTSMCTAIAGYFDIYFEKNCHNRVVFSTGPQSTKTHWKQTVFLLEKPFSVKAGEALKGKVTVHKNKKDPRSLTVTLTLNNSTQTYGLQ
Sequence of Histone-lysine N-methyltransferase SUV39H2 (Homo sapiens) (Q9H5I1 whole entry): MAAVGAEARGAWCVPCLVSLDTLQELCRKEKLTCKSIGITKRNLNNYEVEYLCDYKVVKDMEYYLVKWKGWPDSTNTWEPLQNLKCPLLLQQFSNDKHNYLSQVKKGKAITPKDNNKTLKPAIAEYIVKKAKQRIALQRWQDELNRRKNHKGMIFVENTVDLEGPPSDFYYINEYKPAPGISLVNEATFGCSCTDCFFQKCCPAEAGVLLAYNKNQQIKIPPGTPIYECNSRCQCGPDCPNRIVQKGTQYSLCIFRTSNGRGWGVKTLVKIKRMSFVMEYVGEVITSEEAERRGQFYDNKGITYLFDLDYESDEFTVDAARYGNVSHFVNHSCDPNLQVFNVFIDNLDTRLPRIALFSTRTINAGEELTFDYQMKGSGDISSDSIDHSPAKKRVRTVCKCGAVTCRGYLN
Sequence of DNA (cytosine-5)-methyltransferase 1 (Homo sapiens) (P26358 whole entry): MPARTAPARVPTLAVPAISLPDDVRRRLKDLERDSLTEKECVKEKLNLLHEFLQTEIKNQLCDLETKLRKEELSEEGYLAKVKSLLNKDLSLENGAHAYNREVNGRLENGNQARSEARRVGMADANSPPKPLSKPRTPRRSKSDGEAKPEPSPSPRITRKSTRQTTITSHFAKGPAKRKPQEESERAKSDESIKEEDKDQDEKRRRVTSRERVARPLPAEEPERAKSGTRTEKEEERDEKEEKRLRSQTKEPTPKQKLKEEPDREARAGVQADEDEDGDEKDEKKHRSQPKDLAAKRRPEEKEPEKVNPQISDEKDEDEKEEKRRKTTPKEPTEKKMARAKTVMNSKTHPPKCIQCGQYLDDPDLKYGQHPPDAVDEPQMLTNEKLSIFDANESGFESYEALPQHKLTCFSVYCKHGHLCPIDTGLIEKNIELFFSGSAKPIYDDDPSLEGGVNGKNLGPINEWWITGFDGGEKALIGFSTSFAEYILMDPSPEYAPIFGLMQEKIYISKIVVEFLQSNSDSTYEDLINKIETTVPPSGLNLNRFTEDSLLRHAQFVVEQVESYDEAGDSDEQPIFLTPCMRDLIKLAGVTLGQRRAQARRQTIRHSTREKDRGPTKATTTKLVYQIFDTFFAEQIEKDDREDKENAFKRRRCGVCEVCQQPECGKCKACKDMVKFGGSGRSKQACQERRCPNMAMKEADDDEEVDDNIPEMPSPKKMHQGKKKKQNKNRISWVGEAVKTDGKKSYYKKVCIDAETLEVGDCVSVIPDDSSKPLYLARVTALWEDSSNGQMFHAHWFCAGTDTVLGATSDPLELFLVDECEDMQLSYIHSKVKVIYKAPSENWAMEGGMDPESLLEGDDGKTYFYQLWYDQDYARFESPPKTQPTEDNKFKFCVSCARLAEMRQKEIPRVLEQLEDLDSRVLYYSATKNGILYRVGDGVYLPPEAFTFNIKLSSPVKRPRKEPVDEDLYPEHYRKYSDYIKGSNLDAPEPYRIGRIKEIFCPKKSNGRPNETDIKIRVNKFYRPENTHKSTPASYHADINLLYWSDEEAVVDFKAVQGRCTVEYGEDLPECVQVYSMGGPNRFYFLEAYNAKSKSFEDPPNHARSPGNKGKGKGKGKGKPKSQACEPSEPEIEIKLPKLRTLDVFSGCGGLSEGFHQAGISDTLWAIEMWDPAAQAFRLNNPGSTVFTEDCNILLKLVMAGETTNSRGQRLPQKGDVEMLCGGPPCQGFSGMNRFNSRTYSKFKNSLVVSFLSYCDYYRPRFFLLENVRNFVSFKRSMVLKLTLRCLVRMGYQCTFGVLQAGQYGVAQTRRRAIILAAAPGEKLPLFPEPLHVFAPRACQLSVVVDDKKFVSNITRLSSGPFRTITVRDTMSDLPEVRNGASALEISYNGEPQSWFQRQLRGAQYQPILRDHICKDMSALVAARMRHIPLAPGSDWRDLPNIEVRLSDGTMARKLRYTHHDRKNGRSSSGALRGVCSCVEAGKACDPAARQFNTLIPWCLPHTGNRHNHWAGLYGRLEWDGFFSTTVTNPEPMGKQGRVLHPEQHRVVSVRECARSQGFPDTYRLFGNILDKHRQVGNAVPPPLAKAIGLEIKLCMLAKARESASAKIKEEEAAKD
Sequence of Histone-lysine N-methyltransferase SMYD3 (Homo sapiens) (Q9H7B4 whole entry): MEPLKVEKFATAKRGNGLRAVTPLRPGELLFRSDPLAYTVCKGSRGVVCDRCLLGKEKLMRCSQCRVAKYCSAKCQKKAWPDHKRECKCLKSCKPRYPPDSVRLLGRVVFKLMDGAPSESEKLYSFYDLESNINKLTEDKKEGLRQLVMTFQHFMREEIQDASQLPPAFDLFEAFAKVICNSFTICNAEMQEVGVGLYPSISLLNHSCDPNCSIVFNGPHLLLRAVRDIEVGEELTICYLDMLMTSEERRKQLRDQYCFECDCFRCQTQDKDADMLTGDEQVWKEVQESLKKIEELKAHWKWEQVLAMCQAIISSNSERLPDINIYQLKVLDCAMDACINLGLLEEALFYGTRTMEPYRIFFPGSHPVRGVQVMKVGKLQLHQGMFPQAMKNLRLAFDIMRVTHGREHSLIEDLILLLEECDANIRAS
Sequence of Protein arginine N-methyltransferase 6 (Homo sapiens) (Q96LA8 whole entry, looked up): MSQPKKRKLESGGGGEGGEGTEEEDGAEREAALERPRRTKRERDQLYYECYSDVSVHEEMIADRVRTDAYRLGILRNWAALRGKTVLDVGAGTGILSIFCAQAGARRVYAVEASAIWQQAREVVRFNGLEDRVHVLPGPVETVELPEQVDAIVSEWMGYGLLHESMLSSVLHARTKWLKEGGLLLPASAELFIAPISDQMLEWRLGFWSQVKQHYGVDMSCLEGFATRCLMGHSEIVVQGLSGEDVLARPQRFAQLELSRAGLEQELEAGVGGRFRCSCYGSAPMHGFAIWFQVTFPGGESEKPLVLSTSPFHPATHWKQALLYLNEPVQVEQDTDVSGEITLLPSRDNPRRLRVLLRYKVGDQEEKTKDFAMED

IC50 [1]: 3.7 nM
Compound: COc1cc2c(cc1OCCCN1CC[C@@H](F)C1)N=C(N)C21CCC1

inhibition [2]: inactive
inhibition [3]: inactive
inhibition [4]: inactive
inhibition [6]: inactive
inhibition [7]: inactive
inhibition [8]: inactive
inhibition [9]: inactive
inhibition [10]: inactive
inhibition [11]: inactive
inhibition [12]: inactive
inhibition [14]: inactive
inhibition [15]: inactive
inhibition [16]: inactive
inhibition [17]: inactive
inhibition [19]: inactive
inhibition [20]: inactive
inhibition [21]: inactive
inhibition [22]: 50%
inhibition [23]: inactive
inhibition [24]: inactive
inhibition [25]: inactive
IC50 [26]: 38 nM
inhibition [27]: inactive
Compound: COc1cc2c(cc1OCCCN1CCCC1)N=C(N)C21CCC1
Activity (PC-3 [5]): inactive
Activity (PC-3 [13]): inactive
Activity (PC-3 [18]): inactive

IC50 [1]: 18 nM
Compound: COc1cc2c(cc1OCCCN1CC[C@H](F)C1)N=C(N)C21CCC1

Continued, compound first:

Compound: COc1cc2cc(N)[nH]c2cc1OC
IC50 [1]: 14400 nM

Compound: COc1cc2c(NC3CCN(C(C)C)CC3)nc(C3CCCCC3)nc2cc1OCCCN1CCCC1
Activity (PC-3 [5]): inactive
Activity (PC-3 [13]): inactive
Activity (PC-3 [18]): inactive
inhibition [22]: 50%
